Measurements as given in patent EP3842803A1, “CXCL14 IN POLYCYSTIC OVARY SYNDROME” (Katholieke Universiteit Leuven, priority 2019, dated 2021).

How the values were obtained:
CXCL14 mRNA expression [1] = experiment: cells; type: cell-based, human; settings: for effect of addition to pioglitazone on pioglitazone induction of CXCL14 mRNA expression: added to pioglitazone, 10 days across differentiation (Figure 2B)
Method: (§1) • Figure 1 • A. Baseline circulating CXCL14 concentrations in girls with polycystic ovary syndrome (PCOS, N= 52) and in healthy age-matched controls (N= 21). Data are mean + SEM. • B. Longitudinal results of CXCL14 serum concentrations in girls with PCOS who received an oral contraceptive (OC, white circles, N= 16) or low-dose spironolactone, pioglitazone and metformin (SPIOMET, black circles, N= 15). […] SGBS human pre-adipocytes were treated chronically (10 days) with pioglitazone, spironolactone or metformin alone (A) or in combination (B, C, D) at the indicated doses across the adipoipogeic differentiation process. • A, B. CXCL14 transcript levels are presented as means + SEM from 4-5 independent experiments, and are expressed relative to values from untreated control cells. • C. […] SGBS cells were treated acutely (24h, at the indicated doses) when already differentiated adipocytes.
(§2) Cell culture reagents and drugs were from Sigma.

CXCL14 mRNA expression [2] = experiment: CXCL14 transcript levels (qRT-PCR) in already differentiated SGBS adipocytes treated acutely (24h); type: cell-based, human; settings: acute 24h treatment; spironolactone at 10 µM (Figure 3A)
Method: as §1, §2

CXCL14 protein [3] = experiment: CXCL14 protein (ELISA) in cell culture medium of differentiating SGBS cells; type: cell-based, human; settings: chronic treatment across differentiation; detectable only under pioglitazone treatment
Text: as §2

CXCL14 protein [4] = settings: sgbs adipocytes, 24 h
Method: as §1, §2

increase of the CXCL14 protein levels released by adipocytes to the cell culture medium (CXCL14 protein [4])	Structure (SMILES)	effect of addition to pioglitazone on pioglitazone induction of CXCL14 mRNA expression (CXCL14 mRNA expression [1])	CXCL14 mRNA expression on already differentiated human adipocytes (CXCL14 mRNA expression [2])	fold induction at 0.1 µM (CXCL14 mRNA expression [1]; Homo sapiens, SGBS, 240 h, read-out: induction of CXCL14 mRNA expression)	CXCL14 protein in the cell culture medium of differentiating cells (CXCL14 protein [3])
–	CN(C)C(=N)N=C(N)N [metformin]	did not modify	Neither pioglitazone nor metformin alone had any effect	–	–
–	CCc1ccc(CCOc2ccc(CC3SC(=O)NC3=O)cc2)nc1 (stereo not shown) [pioglitazone]	–	–	~10	0.185 ng/mL
~8 fold	CC(=O)S[C@@H]1CC2=CC(=O)CC[C@]2(C)[C@H]2CC[C@@]3(C)[C@@H](CC[C@@]34CCC(=O)O4)[C@H]12 [spironolactone]	reduced significantly	significant induction	–	–
